Assay results from patent publication US11472807B2, “Purine derivatives for use as medicament and for use in treating neurodegenerative or neuro-inflammatory disorders” (COMMISSARIAT À L'ENERGIE ATOMIQUE ET AUX ENERGIES …, priority 2017, dated 2022).

Experiments:
[1] = system: aggregates of β-pleated sheets; assay: Thioflavin-S immunohistochemistry of total brain tissue of treated mice; assay type: in vivo; settings: mice treated during 28 days
Experimental: C57B1 were exposed subcutaneously to Aftin-5 using osmotic minipumps ([…]; Saint-Germain-Nuelles, France). Aftin-5 was dissolved in DMSO:propylene glycol:ethanol (45:45:10). Mice were treated with 1, 3 or 30 mg/Kg for 28 days. Filled pumps were left in saline overnight at 37° C. for priming. Mice were anesthetized with isoflurane (3-4% v/v, 1.5 mL/min) in an induction chamber and maintained under anesthesia through a mask. Mice were shaved on their back, disinfected and an incision made between the scapulae for pump implantation and finally closed with clips. 1% lidocaine gel was applied over the incision for local analgesia. Animals recovered from anesthesia in heated pads and immediately returned to the cages.
Immunohistochemistry assay was conducted with the total brain tissue, from mice treated with Aftin-5 during 28 days, in the presence of Thioflavin-S dye, which binds aggregates of β-pleated sheets.

[2] = system: IGF-1R (insulin growth factor receptor 1); assay: IGF-1R mRNA in OHSC (RT-qPCR); assay type: cell-based, mice; settings: 50 μM for 10 days, P=0.0845
Experimental: FIG. 12. Plots illustrating the effect of Aftin-5 on relative mRNA expression levels of murine insulin-like growth factor-1 receptor (IGF1-R; (A)) and murine insulin receptor (Insr; (B)) in organotypic hippocampal slice cultures (OHSC). OHSC culture media of OHSC were replaced by incubation medium containing Aftin-5 (50 μM; A50) or vehicle (0.1% DMSO; Veh). 10 days later, total mRNA in lysate was isolated and purified, cDNAs were then synthesized from […] of total mRNA. cDNAs were amplified by quantitative RT-PCR and the relative expression of specific genes was normalized to the housekeeping gene HPRT1 (2^−ΔCt) Mann-Whitney tests were performed and *p<0.05 indicates significant differences between Aftin-5 and control conditions. Data expressed as means+/−SEM from q=3 independent experiments with n=4-6 inserts/condition and 10 slices/insert. […]
The impact of Aftin-5 on gene expression of different biomarkers was determined by measuring mRNA levels of selected BDNF, CREB, PS95, INS Receptor/IGF-1 receptor, IL-1β, IL-6 in OHSC treated chronically with Aftin-5 or in a total brain from mice exposed to Aftin-5 at either 8 or 30 mg/Kg. […] Threshold cycles (Ct) of target gene and cyclophilin A (Ppia−control housekeeping gene) were recorded and gene expression was calculated as 2^−ΔΔCt(ΔΔCt=ΔCttreated−ΔCtcontrol, ΔCt=Cttarget−CtPpia). […]

PSD95 = PSD95 mRNA in OHSC (RT-qPCR); assay type: cell-based; settings: OHSCs from WT mice, 50 μM, 10 days
Experimental: FIG. 15. Plots illustrating the effect of Aftin-5 on relative mRNA expression levels of Long Term Potentialisation (LTP) biomarkers, i.e CREB (A), PSD95 (B) and BDNF (C) in C57B16J OHSC mice treated chronically with Aftin-5. OHSC culture media of OHSC were replaced by incubation medium containing Aftin-5 (50 μM; A50) or vehicle (0.1% DMSO; Veh). 10 days later, total mRNA in lysate was isolated and purified, cDNAs were then synthesized from […] of total mRNA. cDNAs were amplified by quantitative RT-PCR and the relative expression of specific genes was normalized to the housekeeping gene HPRT1 (2^—ΔCt). […] Data expressed as means+/−SEM from q=3 independent experiments with n=4-6 inserts/condition and 10 slices/insert. […]
The impact of Aftin-5 on gene expression of different biomarkers was determined by measuring mRNA levels of selected BDNF, CREB, PS95, INS Receptor/IGF-1 receptor, IL-1β, IL-6 in OHSC treated chronically with Aftin-5 or in a total brain from mice exposed to Aftin-5 at either 8 or 30 mg/Kg. […] RNA concentration was measured spectrophotometrically at 260 nm in a NanoDrop 2000c (Thermo Scientific, Villebon-sur-Yvette, France) (sample A260 nm/A280 nm ratios over 1.8 indicated reduced genomic DNA contamination). cDNAs were synthesized from 0.5 μg of total RNA with RT^2 First Strand kit (Qiagen, Courtaboeuf, France) according to the manufacturer's protocol and stored at −80° C. […]

GSK-3β = GSK-3β activity in organotypic slice cultures from transgenic mice overexpressing phosphorylated Tau; assay type: cell-based
Excerpt: Unpredictably, Aftin-5 is shown herein to efficiently promote an attenuation of the phosphorylation of Tau protein (see example 5).

[3] = system: in vitro cell based rat BBB model
Experimental: A 20% BSA gradient was used for isolation of capillaries. After a second enzymatic digestion, cells were plated in 75 cm^2 coated culture flasks in EBM medium completed by the EGM-2 MV Single Quots kit (Lonza, Basel, Switzerland). Cultures were maintained at 37° C. in a humidified 5% CO2 atmosphere for 5-6 days before being trypsinized and frozen.
The chambers containing human glial cells and brain endothelial cells were considered as the basolateral and apical compartment, respectively. The microplates were then incubated at 37° C. in a 5% CO2 atmosphere. Under these experimental conditions, brain endothelial cells formed a confluent monolayer within 15 days.
After checking BBB integrity, Transwells® with BEC monolayers were transferred to new plates. T buffer (150 mM NaCl, 5.2 mM KCl, 2.2 mM CaCl2, 0.2 mM MgCl2, 6 mM NaHCO3, 2.8 mM glucose and 5 mM Hepes) was added 1.5 mL to the basal chamber (B) and 0.5 ml to the apical chamber (A). […] The Papp value was calculated as followed: Papp=dQ/dT×A×C0 (1) where dQ/dT: amount of drug transported per time-point; A: membrane surface area; Co: donor concentration at time-point 0. […] The mass balance was calculated as follows: R (%)=([(Ap+Bs)/A0]×100 (2) where Ap and Bs are the amount of tested compounds in the apical and basal compartments, respectively. A0 is the initial amount in the donor compartment.

CC[C@H](CO)Nc1nc(N(C)c2ccccc2)c2ncn(C(C)C)c2n1 [Aftin-5]
aggregates of β-pleated sheets (Thioflavin-S binding) [1]: absence
IGF-1R mRNA [2]: tend to increase
PSD95 mRNA (PSD95): transcriptional upregulation
activity of GSK-3β (GSK-3β): reduces
Papp compared to Papp value of memantine [3]: not significantly different
